# Measured values from patent US12403132B2, “Methods of treating bone marrow failure syndromes and compositions for use in the same” (The Board of Trustees of the Leland Stanford Junior …, priority 2020, dated 2025).
# Columns and labels:
# Solubility = type: physicochemical; settings: data not shown
# NLK = target: T1, NLK (Homo sapiens, UniProt Q9UBE8); assay: Kinase assay of NLK immunopurified from treated differentiating human progenitors; type: cell-based; design: 5000 cells per treatment were lysed and immunopurified NLK was subjected to in vitro kinase assay; endogenous in cells; host or cells: human cord blood CD34+ HSPCs transduced with shLuc / shRPS19 / shRPL11, differentiating in erythroid medium; settings: NLK from ginsenoside Rb1-treated RPS19-insufficient progenitors
# T1 sequence (Q9UBE8 1-527): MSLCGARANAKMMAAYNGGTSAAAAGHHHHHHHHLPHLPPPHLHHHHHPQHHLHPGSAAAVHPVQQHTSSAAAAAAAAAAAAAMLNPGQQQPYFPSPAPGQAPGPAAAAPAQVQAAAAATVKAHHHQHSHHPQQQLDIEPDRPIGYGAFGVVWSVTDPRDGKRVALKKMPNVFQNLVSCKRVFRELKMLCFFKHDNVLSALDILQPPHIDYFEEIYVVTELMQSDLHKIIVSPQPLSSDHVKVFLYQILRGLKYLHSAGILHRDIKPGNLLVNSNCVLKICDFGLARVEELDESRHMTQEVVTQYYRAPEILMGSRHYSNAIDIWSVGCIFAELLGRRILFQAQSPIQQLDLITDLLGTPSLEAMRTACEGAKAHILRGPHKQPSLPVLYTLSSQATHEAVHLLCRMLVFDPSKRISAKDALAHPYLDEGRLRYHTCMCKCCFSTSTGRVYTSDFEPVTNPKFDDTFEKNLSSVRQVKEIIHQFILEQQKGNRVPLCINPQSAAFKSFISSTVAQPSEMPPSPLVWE
# RPS19 = RPS19 expression in differentiating HSPCs (qRT-PCR); type: cell-based, human; settings: differentiating RPS19-insufficient HSPCs
# From the text: As the suppression of NLK by miRNAs has been documented, we sought to screen a number of common nutritional supplements that have been documented to modulate miRNAs in their ability to improve erythroid expansion in an in vitro model of DBA. To induce ribosomal insufficiency, CD34+ HSPCs from human cord blood were transduced with a shRNA against RPS19 that reduced RPS19 expression by approximately 50% to recapitulate decreased function due to RPS19 mutations in DBA patients. As described above, metformin improves erythroid expansion by miRNA-mediated suppression of NLK mRNA expression and was therefore included as a positive control. […] Efficacy of shRNA against RPS19 was quantified by qRT-PCR. […] To determine if the ginsenoside Rb1 effect was through the inhibition of NLK, we treated differentiating HSPCs with ginsenoside Rb1 that were transduced with a non-targeting control or siRNA against NLK. Ginsenoside R1 alone or siRNA against NLK alone improved erythroid expansion by 2.7- and 5.1-fold, respectively.
# miRNA species = assay: miRNA expression by qRT-PCR in differentiating murine Lin-Kit+ progenitors; type: cell-based, mouse; settings: metformin
# Procedure: FIG. 14. Metformin-mediated upregulation of miR-26a in human progenitors suppresses NLK expression. (Panel A) Human CD34+ (upper) and murine Lin-Kit+ (lower) progenitors were differentiated for 8 days in the presence or absence of metformin and the levels of indicated miRNAs were assessed by qRT-PCR. (Panel B) K562 cells stably expressing the luciferase gene coupled to the NLK 3′UTR were mock transfected, transfected with indicated miRNA mimetics, or treated with metformin, and cultured in the presence or absence of metformin for 72 hrs. After lysis, luciferase activity was determined and endogenous NLK and GAPDH protein expression was analyzed by Western blot. (Panel C) K562 cells were mock transfected, or transfected with either miR-34 or miR-26 sponges, prior to being left untreated or treated with metformin for 72 hrs. Lysed cells were subjected to luciferase assay and western blotting to examine NLK and GAPDH protein expression. […] Statistics: two-tailed Student's t test, significant *P<0.05
# MessengerRNA was quantified as described (5). MicroRNA was quantified using TaqMan® Small RNA Assays (Applied Biosystems) as per manufacturer's directions and normalized to snoRNA.
# zebrafish NLK 3′UTR = assay: Luciferase fused to zebrafish NLK 3′UTR in K562 cells; type: cell-based; settings: transient transfection in K562, metformin 72 hrs
compound,measurement,setting,value
Fc1ccc(Cl)cc1-c1nc(Nc2ccncc2)c2nccnc2n1 [SD208],solubility,Solubility,poor solubility
CC(C)=CCC[C@](C)(O[C@@H]1O[C@H](CO[C@@H]2O[C@H](CO)[C@@H](O)[C@H](O)[C@H]2O)[C@@H](O)[C@H](O)[C@H]1O)[C@H]1CC[C@]2(C)[C@@H]1[C@H](O)C[C@@H]1[C@@]3(C)CC[C@H](O[C@@H]4O[C@H](CO)[C@@H](O)[C@H](O)[C@H]4O[C@@H]4O[C@H](CO)[C@@H](O)[C@H](O)[C@H]4O)C(C)(C)[C@@H]3CC[C@]12C [ginsenoside Rb1],reduced NLK kinase activity,NLK,44.8%
same,influence on RPS19 expression,RPS19,did not influence
CN(C)C(=N)N=C(N)N [metformin],upregulation of miRNA species,miRNA species,none of the miRNA species examined demonstrated significant upregulation
same,"decrease of luciferase activity, zebrafish 3′UTR",zebrafish NLK 3′UTR,43.6%
